Measured values published in patent US11766397B2, “Bioactive compositions comprising ficus serum fracton and methods to reduce the appearance of skin hyperpigmentation” (ISP INVESTMENTS LLC, priority 2010, dated 2023).

Test system: facial hyperpigmented spots in humans
Experiment: In vivo testing for hyperpigmented spot reduction and melanin evenness (split face, vehicle controlled)
Design: species or system human
Conditions: for Melanin Evenness vs Vehicle / NC2SAF (spot area fraction) vs Vehicle: twice daily facial application
Procedure: A 9 week in-vivo study was conducted using a round robin, vehicle controlled, split face design including a 1 week normalization period with 270 subjects. The 270 subjects were screened according to inclusion/exclusion criteria which included the following:
• Has hyperpigmented spots around cheek and/or periorbital area on both sides of the face. • Has at least 1 hyperpigmented spot of 8-10 mm diameter, 4 spots of 4-6 mm or 10 spots of 2-3 mm diameter (sun spots., freckles, or melasma spots) or • equivalent spot area in the cheek area on each side of their face. • Is willing to refrain from sun exposure by using supplied UV lotion and physical UV blocks, such as a hat, to avoid facial sunburn, tanning or wind burn.
• Has been diagnosed as having atopy, eczema, psoriasis, or other chronic skin diseases. • Has obvious signs of facial skin disease (e.g., more than 5 pimples, areas of red scaling skin, superficial thin blood vessels, etc.). • Has significant areas of discoloration or scarring on the face. • Has more than 3 prominent moles (<3 mm) on the face.
Two hundred and seventy subjects were recruited for the study. Approximately 60 subjects dropped during the course of the study. Each subject received two coded test formulations for twice daily application to each half of the face. Images of the facial treatment sites were captured at baseline (week 0), and after 4 and 8 weeks of treatment and analyzed for changes to skin color and spot size and color. The product formulations included a vehicle control, the Vehicle+0.55% FSF, and the vehicle+5% vitamin B3 compound (Niacinamide).
Noncontact spectrophotometric intracutaneous analysis (SiaScopy, Astron Clinica, UK) was used to collect and analyze the subject images. The method used a digital camera (e.g., Fuji S2 digital SLR) as a […] and a flash lighting source (e.g., Sigma Super flash light source) to recover facial chromophore information. A cross polarized filter was placed in front of the camera and the lighting source to eliminate specular reflection.
Chromophore mapping of the concentration and distribution of eumelanin (melanin) and oxyhaemoglobin produces grayscale concentration maps of each of these chromophores. Image analysis software, such as Optimas 6.5, can be used to select a region of interest in each chromophore map from which mean grayscale values and spot area fraction are calculated. Spot area fraction refers to total area occupied by melanin spots as a percentage of the whole region of interest. A description of one type of chromophore mapping can be found in EP 1,810,614 and “The Distribution of Melanin in Skin Determined In Vivo”, British Journal of Dermatology, 2007, pp 620-628.

NC(=O)c1cccnc1 [Niacinamide]
Melanin Evenness vs Vehicle (4 weeks): ns (ns = not significant (p > 0.3))
NC2SAF (spot area fraction) vs Vehicle (4 weeks): as
Melanin Evenness vs Vehicle (8 weeks): sig (sig = significant (p < 0.1))
NC2SAF (spot area fraction) vs Vehicle (8 weeks): sig (sig = significant (p < 0.1))
reducing hyperpigmented spots (After 8 weeks): best performer
